Data taken from ChEMBL document CHEMBL1201862, “PubChem BioAssay data set” (2004).
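Protocol summary: plate cells (96-well), add compound at 5 concentrations, incubate 48 h, interpolate endpoints linearly. Abbreviation: GI50, concentration required for 50% inhibition of growth.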 The source made the active and inactive calls. Rule as the data show it: active = GI50 up to about 1.1 µM and inactive = higher.

Assays:
Assay in all cases: DTP human tumour cell line panel, 48 h
[1] = test system: HCC 2998
[2] = test system: CCRF-CEM
[3] = test system: SW-620
[4] = test system: T47D
[5] = test system: HOP-62
[6] = test system: U-251
[7] = test system: TK-10
[8] = test system: ACHN
[9] = test system: Malme-3M
[10] = test system: SNB-19
[11] = test system: NCI-H460
[12] = test system: SK-MEL-2
[13] = test system: PC-3
[14] = test system: NCI-H522
[15] = test system: MCF7
[16] = test system: RXF 393
[17] = test system: OVCAR-4
[18] = test system: HOP-92
[19] = test system: UACC-62
[20] = test system: IGROV-1

Row | Compound | GI50 [1] | GI50 [2] | GI50 [3] | GI50 [4] | GI50 [5] | GI50 [6] | GI50 [7] | GI50 [8] | GI50 [9] | GI50 [10] | GI50 [11] | GI50 [12] | GI50 [13] | GI50 [14] | GI50 [15] | GI50 [16] | GI50 [17] | GI50 [18] | GI50 [19] | GI50 [20]
1 | Cc1cc2nc3c(C#N)c(-c4ccccc4)cc(Nc4ccc(Cl)cc4)n3c2cc1C | > 100 µM (inactive) | 4.53 µM (inactive) | > 100 µM (inactive) | 6.24 µM (inactive) | > 100 µM (inactive) | 15.9 µM (inactive) | > 100 µM (inactive) | > 100 µM (inactive) | > 100 µM (inactive) | > 100 µM (inactive) | 28.5 µM (inactive) | > 100 µM (inactive) | > 100 µM (inactive) | 9.57 µM (inactive) | > 100 µM (inactive) | > 100 µM (inactive) | > 100 µM (inactive) | – | – | –
2 | COc1ccccc1/N=C1\SCCN1C(=S)Nc1ccc(S(=O)(=O)/N=C/N(C)C)cc1 | > 100 µM (inactive) | 38.3 µM (inactive) | 44.9 µM (inactive) | 25.8 µM (inactive) | > 100 µM (inactive) | > 100 µM (inactive) | 36 µM (inactive) | 32.4 µM (inactive) | – | > 100 µM (inactive) | > 100 µM (inactive) | – | > 100 µM (inactive) | – | 26.1 µM (inactive) | 16.6 µM (inactive) | 43.2 µM (inactive) | 27.9 µM (inactive) | 25.7 µM (inactive) | –
3 | CC(C)Oc1c(-c2ccc(F)cc2)c(O)c2c3c1oc(=O)n3C=CC2C (centres undefined) | 13.4 µM (inactive) | 11 µM (inactive) | 14.3 µM (inactive) | – | 14.8 µM (inactive) | 15.5 µM (inactive) | 16.9 µM (inactive) | 14.5 µM (inactive) | 22.3 µM (inactive) | 15.8 µM (inactive) | 14.2 µM (inactive) | 17.8 µM (inactive) | 7.05 µM (inactive) | 12.1 µM (inactive) | 11.3 µM (inactive) | 14 µM (inactive) | 10.7 µM (inactive) | 13.9 µM (inactive) | 14.6 µM (inactive) | 15.3 µM (inactive)
4 | O=C1/C(=C/c2cccc(Br)c2)CCc2ccccc21 | – | 3.26 µM (inactive) | 5.51 µM (inactive) | – | 16 µM (inactive) | 14.6 µM (inactive) | 16.5 µM (inactive) | 14.2 µM (inactive) | 12.4 µM (inactive) | 14.7 µM (inactive) | 15.2 µM (inactive) | 12.9 µM (inactive) | 14.2 µM (inactive) | 10.6 µM (inactive) | 3.75 µM (inactive) | – | 13.1 µM (inactive) | 14.7 µM (inactive) | 10.5 µM (inactive) | 11.4 µM (inactive)
5 | CC1CCc2c(c(CC3CC(=O)NC(=O)C3)nn2-c2ccccc2)C1 (centres undefined) | > 100 µM (inactive) | > 100 µM (inactive) | > 100 µM (inactive) | > 100 µM (inactive) | > 100 µM (inactive) | > 100 µM (inactive) | > 100 µM (inactive) | > 100 µM (inactive) | > 100 µM (inactive) | > 100 µM (inactive) | 99.1 µM (inactive) | > 100 µM (inactive) | > 100 µM (inactive) | – | > 100 µM (inactive) | > 100 µM (inactive) | > 100 µM (inactive) | > 100 µM (inactive) | 76.2 µM (inactive) | > 100 µM (inactive)
6 | Cc1ccc(C(=O)N/N=C(\N=N\c2ccccc2C(=O)O)c2ccc(N(C)C)cc2)cc1 | 71.4 µM (inactive) | 43.5 µM (inactive) | > 100 µM (inactive) | – | – | > 100 µM (inactive) | > 100 µM (inactive) | – | – | 55.3 µM (inactive) | 72.6 µM (inactive) | > 100 µM (inactive) | > 100 µM (inactive) | 46.3 µM (inactive) | > 100 µM (inactive) | – | 64.7 µM (inactive) | > 100 µM (inactive) | – | > 100 µM (inactive)
7 | COC1=C(OC)C(=O)C(Cc2c(Cl)nc3n2CCS3)=C(C)C1=O | 16.5 µM (inactive) | 2.81 µM (inactive) | 18 µM (inactive) | 4.13 µM (inactive) | 15.6 µM (inactive) | 17.5 µM (inactive) | 15.6 µM (inactive) | 14.8 µM (inactive) | 7.83 µM (inactive) | 16.2 µM (inactive) | 15 µM (inactive) | 14.6 µM (inactive) | 17.7 µM (inactive) | 11.6 µM (inactive) | 12.9 µM (inactive) | 17.4 µM (inactive) | 7.73 µM (inactive) | – | 12.1 µM (inactive) | 16.9 µM (inactive)
8 | COc1ccc2oc(=N)c(C(=O)NCc3ccccc3)cc2c1 | – | 62.1 µM (inactive) | 19 µM (inactive) | 15 µM (inactive) | 21.2 µM (inactive) | 16.9 µM (inactive) | 22.6 µM (inactive) | 13.3 µM (inactive) | 15.5 µM (inactive) | 27.4 µM (inactive) | 28.5 µM (inactive) | 18.6 µM (inactive) | 30.5 µM (inactive) | 19.5 µM (inactive) | 24 µM (inactive) | 16.8 µM (inactive) | 34.8 µM (inactive) | – | – | 19.9 µM (inactive)
9 | Nc1ccc2[nH]c(C(=O)N3CC(CCl)c4c3cc(N)c3ccccc43)cc2c1 (centres undefined) | < 0.01 µM (active) | < 0.01 µM (active) | < 0.01 µM (active) | 0.0119 µM (active) | < 0.01 µM (active) | < 0.01 µM (active) | < 0.01 µM (active) | < 0.01 µM (active) | – | < 0.0138 µM (active) | < 0.01 µM (active) | < 0.01 µM (active) | < 0.01 µM (active) | – | < 0.01 µM (active) | < 0.01 µM (active) | < 0.01 µM (active) | 0.0115 µM (active) | < 0.01 µM (active) | < 0.01 µM (active)
10 | COc1ccc(N2C(=O)C3c4[nH]c5ccccc5c4C4CCC(c5ccccc5)CC4C3C2=O)cc1 (centres undefined) | – | 6 µM (inactive) | > 32.7 µM (inactive) | > 66.4 µM (inactive) | 7.28 µM (inactive) | 5.92 µM (inactive) | 12.8 µM (inactive) | 12.3 µM (inactive) | 3.38 µM (inactive) | 12.5 µM (inactive) | 10.3 µM (inactive) | 23.4 µM (inactive) | 36.2 µM (inactive) | 10.2 µM (inactive) | 39 µM (inactive) | 10.2 µM (inactive) | 8.87 µM (inactive) | 16.1 µM (inactive) | 24.8 µM (inactive) | 30.8 µM (inactive)
11 | CCOc1nc2sc3c(c2c(=O)n1CCSSCCn1c(OCC)nc2sc4c(c2c1=O)CCCC4)CCCC3 | > 100 µM (inactive) | – | > 100 µM (inactive) | > 100 µM (inactive) | > 100 µM (inactive) | > 100 µM (inactive) | > 100 µM (inactive) | > 100 µM (inactive) | > 100 µM (inactive) | > 100 µM (inactive) | > 100 µM (inactive) | > 100 µM (inactive) | > 100 µM (inactive) | – | > 100 µM (inactive) | – | > 100 µM (inactive) | – | > 100 µM (inactive) | > 100 µM (inactive)
12 | OC(c1nc2ccccc2[nH]1)C(O)C(O)C(O)c1nc2ccccc2[nH]1 (centres undefined) | – | – | > 100 µM (inactive) | > 100 µM (inactive) | > 100 µM (inactive) | > 100 µM (inactive) | > 100 µM (inactive) | > 100 µM (inactive) | > 100 µM (inactive) | > 100 µM (inactive) | > 100 µM (inactive) | > 100 µM (inactive) | > 100 µM (inactive) | > 100 µM (inactive) | > 100 µM (inactive) | > 100 µM (inactive) | > 100 µM (inactive) | > 100 µM (inactive) | > 100 µM (inactive) | > 100 µM (inactive)
13 | Fc1cc(-c2cc(-c3ccccc3)n[nH]2)c(Cl)cc1Cl | – | 82.2 µM (inactive) | > 100 µM (inactive) | > 100 µM (inactive) | 64.4 µM (inactive) | 51.5 µM (inactive) | > 100 µM (inactive) | 6.35 µM (inactive) | > 100 µM (inactive) | > 100 µM (inactive) | > 100 µM (inactive) | > 100 µM (inactive) | > 100 µM (inactive) | > 100 µM (inactive) | – | > 100 µM (inactive) | > 100 µM (inactive) | > 100 µM (inactive) | – | 1.77 µM (inactive)
14 | NC1=C(N2CCOCC2)C(=O)NC2=N/C(=C\c3ccccc3)C(=O)N21 | > 100 µM (inactive) | 79.6 µM (inactive) | > 100 µM (inactive) | 81.3 µM (inactive) | – | > 100 µM (inactive) | > 100 µM (inactive) | > 100 µM (inactive) | > 100 µM (inactive) | > 100 µM (inactive) | > 100 µM (inactive) | – | – | > 100 µM (inactive) | > 100 µM (inactive) | > 100 µM (inactive) | > 100 µM (inactive) | > 100 µM (inactive) | – | > 100 µM (inactive)
15 | CC(C1CCCC1=O)C1CCCC1=O (centres undefined) | > 100 µM (inactive) | > 100 µM (inactive) | > 100 µM (inactive) | > 100 µM (inactive) | > 100 µM (inactive) | > 100 µM (inactive) | > 100 µM (inactive) | > 100 µM (inactive) | > 100 µM (inactive) | > 100 µM (inactive) | > 100 µM (inactive) | > 100 µM (inactive) | > 100 µM (inactive) | > 100 µM (inactive) | > 100 µM (inactive) | > 100 µM (inactive) | > 100 µM (inactive) | – | > 100 µM (inactive) | > 100 µM (inactive)
16 | C=C(C)C1CC(=O)C(C)=C(O)C1 (centres undefined) | > 100 µM (inactive) | > 100 µM (inactive) | > 100 µM (inactive) | > 100 µM (inactive) | > 100 µM (inactive) | > 100 µM (inactive) | > 100 µM (inactive) | > 100 µM (inactive) | > 100 µM (inactive) | > 100 µM (inactive) | > 100 µM (inactive) | > 100 µM (inactive) | > 100 µM (inactive) | > 100 µM (inactive) | > 100 µM (inactive) | – | > 100 µM (inactive) | – | > 100 µM (inactive) | > 100 µM (inactive)
